Consider 1 substance from ChEMBL document CHEMBL5390219, “Benzyl stapled modification and anticancer activity of antimicrobial peptide A4K14-Citropin 1.1” (Bioorg Med Chem Lett, 2023).

pIC50: −log10 of the molar value. Active and inactive are the calls of the source. The calls are words filed in the database; no cut-off is given here.

Series [1] concerns MCF7. Briefly: Inhibition of cell migration in human MCF7 cells at 5 uM incubated for 36 hrs by crystal violet staining based microscopy analysis. The series is classed as functional.
Series [2] is described as follows: Stability of a compound in human serum assessed as half life at 91 mg/mL incubated for 0 to 144 hrs by HPLC-UV analysis. The settings on record: time 0-144 hrs. The series is classed as ADME, cell-free.
The subject of series [3] is MCF7. Briefly: Anti-cancer activity against human MCF7 assessed as cell viability incubated for 48 hrs by CCK-8 assay. It counts as functional, cell-based. The settings on record: MCF7, 48 h. In general terms: Formazan colour is commonly taken as a measure of viable cells.
Another series deals with U-87 MG. Description: Anti-cancer activity against human U-87 MG assessed as cell viability incubated for 48 hrs by CCK-8 assay. It counts as functional, cell-based, U-87MG ATCC.
The test system of series [4] is MCF7. Briefly: Induction of cell death in human MCF7 cells at 10 uM incubated for 24 hrs by calcein-AM/PI staining based analysis. The series is classed as functional.
The next series has as its system HCT-116. Briefly: Anti-cancer activity against human HCT-116 assessed as cell viability incubated for 48 hrs by CCK-8 assay. It counts as functional, cell-based. The settings on record: HCT-116, 48 h.
Series [5] has as its system MCF7. Briefly: Induction of apoptosis in human MCF7 cells assessed as viable cells at 5 uM incubated for 24 hrs by Annexin V-FITC/PI staining based flow cytometry analysis (reference value: 93.51%). It counts as functional. The note with it: read-out: Activity. On the technique in general: Flow cytometry measures light scatter and fluorescence of single cells or particles in a stream.

The test system of series [6] is MCF7. Description: Induction of apoptosis in human MCF7 cells assessed as early apoptotic cells at 5 uM incubated for 24 hrs by Annexin V-FITC/PI staining based flow cytometry analysis (reference value: 1.01%). It counts as functional.
Series [7] relates to MCF7. Briefly: Induction of apoptosis in human MCF7 cells assessed as late apoptotic cells at 5 uM incubated for 24 hrs by Annexin V-FITC/PI staining based flow cytometry analysis (reference value: 3.54%). The series is classed as functional.
Series [8] deals with MCF7. Description: Induction of apoptosis in human MCF7 cells assessed as necrotic cells at 5 uM incubated for 24 hrs by Annexin V-FITC/PI staining based flow cytometry analysis (reference value: 1.94%). It counts as functional.

On to Ac-GLFAVIKKVASVIKGL-NH2, for which the outcome in the series on MCF7 [1] was inactive. In addition, in series [2], the half-life at 91 mg/mL is 6.81 h. The values for the pIC50 in the series with MCF7 [3], in the series on U-87 MG and in the series on HCT-116 were 4.85, 4.84 and 4.79, respectively. Also, the result with MCF7 [4] was Active. Further, the viability at 5 µM in the series with MCF7 [5] was found to be 77.5%. For the same substance, the Activity in the series with MCF7 [6] is listed as 2.44%; with MCF7 [7], 11.45%; in the series with MCF7 [8] it was 8.31%.

In general, half-life refers to how long it takes for the measured level to halve. The term pIC50 denotes the negative decadic logarithm of the IC50, by convention in mol/L.
